The record followed here is patent US8673929B2, “4,6-di- and 2,4,6-trisubstituted quinazoline derivatives and pharmaceutical compositions useful for treating viral infections” (priority 2006, dated 2014).

The test system of one data set is HCV replicon. Nature of the data set: Anti-HCV replicon assay, EC50 (luciferase readout). It counts as cell-based. The following applies: Hepatitis C virus, 72 h; Huh-7 HCV replicon cells, 3 days incubation, luciferase luminescence. The protocol:
(§1) The anti HCV activity of the quinazoline derivatives of this invention was tested in a human hepatoma Huh-7 cell line harbouring a HCV replicon. The assay comprised the following steps:
(§2) Step 1: compound preparation and serial dilution • 1. for water soluble quinazoline derivatives, a volume of 500 μL of solution in cell media (DMEM, 10% FBS, P/S, L-Glutamine) was prepared with a concentration being twice the concentration of the starting final serial dilution concentration. A volume of 150 μL of the solution was added to the pre-specified wells in column 1 of a 96-well cell culture plate (PerkinElmer, white plate, cat. #6005181, for EC50 assay; black plate, cat. #6005182 for CC50 assay). The rest of the plate, columns 2-12, was filled with 100 μL of cell media. The plate was then placed on a Precision 2000 Workstation to start the serial dilution. Compounds were diluted three times each step from column 1 to column 10. Column 11 was used as a blank control (no compound added). • 2. for quinazoline derivatives requiring DMSO to dissolve, serial dilution is performed in 50% DMSO in a 384-well plate. A solution containing a compound at 100-fold concentration of the starting final serial dilution concentration was prepared in 50% DMSO and added to the pre-specified wells in column 1 of a polypropylene 384-well plate. The plate was then placed on a Precision 2000 Workstation to start the serial dilution. After the serial dilution, a volume of 2 μL of the solution was transferred from the 384-well plate to a 96-well cell culture plate containing 100 μL of cell media on a Biomek FX Workstation. The DMSO concentration in the final assay condition was 0.5% after cells are added to the plate and the total volume in each well is brought to 200 μL.
(§3) Step 2: to each well of the serial dilution plate prepared above, 100 μL of cell media containing 6000 suspended Huh-7 HCV replicon cells was added with a Multidrop workstation. The plates were incubated for 3 days at 37° C. with 5% CO2.
(§4) Step 3: detection: • a) for the EC50 assay, the media in a 96-well cell culture plate was aspirated with a Biotek EL405 plate-washer. A volume of 200 μL of a solution containing a 1:1 mixture of cell-lysis buffer (Promega, Luciferase Cell Culture Lysis 5× Reagent, cat. #E1531) and luciferase substrate solution (Promega, Luciferase Assay, cat.# E4550) was added to each well of the plate with Multidrop. The plate was incubated for 30 minutes at room temperature before the luminescence signal was measured with a TopCount plate-reader. • b) for the CC50 assay, a volume of 100 μL of pre-mixed CellTiter-Glo (Promega, cat.# G7572) solution is added directly to the cell culture in each well of the plate and the luminescence signal is measured with a TopCount plate-reader after 10 minutes of incubation at room temperature.
(§5) Results in the table below are expressed by the following data: • the 50% cytostatic concentration (CC50), i.e. the concentration that results in 50% inhibition of cell growth, and • the 50% effective concentration (EC50), i.e. the concentration that […].

The nature of data set [1]: CC50 assay in the anti-HCV replicon assay (CellTiter-Glo). It is filed as cell-based, human. The conditions noted are these: human, Huh-7 hepatoma cells harbouring an HCV replicon; Huh-7 HCV replicon cells, 3 days incubation, CellTiter-Glo luminescence. The protocol: as §1, §2, §3, §4, §5
(In antiviral work, replicon cells carry a viral genome segment that copies itself.)

Turning to `CC(C)Oc1nc(N)nc2ccc(-c3ccco3)cc12` [Example 88, 6-Furan-2-yl-4-isopropoxy-quinazolin-2-ylamine], the EC50 (as a rule, the concentration at which the effect is half-maximal) in the data set on HCV replicon lay within 1 to 10 µM. Moreover, in data set [1], the CC50 (usually the concentration giving 50% cytotoxicity) at 3 days was > 20 µM.
The corresponding values for `CC(C)Oc1nc(N)nc2ccc(-c3ccsc3)cc12` [Example 89, 4-Isopropoxy-6-thiophen-3-yl-quinazolin-2-ylamine] are 0.3 to 1 µM and 10 to 20 µM.
In the data set with HCV replicon, `CC(C)Oc1nc(N)nc2ccc(-c3cccnc3)cc12` [Example 90, 4-Isopropoxy-6-pyridin-3-yl-quinazolin-2-ylamine] returned an EC50 of 0.3 to 1 µM. In data set [1], the CC50 at 3 days is > 20 µM.
As for `CC(C)Oc1nc(N)nc2ccc(-c3ccc(F)c(F)c3)cc12` [Example 91, 6-(3,4-Difluoro-phenyl)-4-isopropoxy-quinazolin-2-ylamine], in the data set with HCV replicon, the EC50 lay within 0.3 to 1 µM. The molecule also gave a CC50 at 3 days in data set [1] of 10 to 20 µM.
The corresponding values for `CC(C)Oc1nc(N)nc2ccc(-c3ccncc3)cc12` [Example 92, 4-Isopropoxy-6-pyridin-4-yl-quinazolin-2-ylamine] are 0.3 to 1 µM and 10 to 20 µM.
The corresponding values for `CC(C)Oc1nc(N)nc2ccc(-c3cccc(C#N)c3)cc12` [Example 93, 3-(2-Amino-4-isopropoxy-quinazolin-6-yl)-benzonitrile] are 0.3 to 1 µM and 10 to 20 µM.
In the data set with HCV replicon, `CC(C)Oc1nc(N)nc2ccc(-c3cc(F)cc(F)c3)cc12` [Example 94, 6-(3,5-Difluoro-phenyl)-4-isopropoxy-quinazolin-2-ylamine] gave an EC50 of 1 to 10 µM. Moreover, the CC50 at 3 days in data set [1] is > 20 µM.
Take `CC(C)Oc1nc(N)nc2ccc(-c3ccc(OC(F)(F)F)cc3)cc12` [Example 95, 4-Isopropoxy-6-(4-trifluoromethoxy-phenyl)-quinazolin-2-ylamine]: the EC50 in the data set on HCV replicon lay in the range of 1 to 10 µM. Further, the CC50 at 3 days in data set [1] is > 20 µM.
Consider `CC(C)Oc1nc(N)nc2ccc(-c3ccc(N)cc3)cc12` [Example 96, 6-(4-Amino-phenyl)-4-isopropoxy-quinazolin-2-ylamine], for which, in the data set on HCV replicon, the EC50 was 0.3 to 1 µM. The CC50 at 3 days in data set [1] was > 20 µM.
`CC(C)Oc1nc(N)nc2ccc(-c3ccc(F)c(F)c3F)cc12` [Example 97, 4-Isopropoxy-6-(2,3,4-trifluoro-phenyl)-quinazolin-2-ylamine] registered an EC50 in the data set with HCV replicon of 0.3 to 1 µM. For the same molecule, the CC50 at 3 days in data set [1] is > 20 µM.
The corresponding values for `CC(C)Oc1nc(N)nc2ccc(-c3ccccc3OCc3ccccc3)cc12` [Example 98, 6-(2-Benzyloxy-phenyl)-4-isopropoxy-quinazolin-2-ylamine] are 1 to 10 µM and < 10 µM.
The molecule `CC(C)Oc1nc(N)nc2ccc(-c3ccc(C#N)cc3)cc12` [Example 99, 4-(2-Amino-4-isopropoxy-quinazolin-6-yl)-benzonitrile] registered an EC50 in the data set with HCV replicon of 0.3 to 1 µM. In addition, in data set [1], the CC50 at 3 days is > 20 µM.
The corresponding values for `CC(C)Oc1nc(N)nc2ccc(-c3ccc(O)cc3)cc12` [Example 100, 4-(2-Amino-4-isopropoxy-quinazolin-6-yl)-phenol] are < 0.3 µM and 10 to 20 µM.
The corresponding values for `CC(C)Oc1nc(N)nc2ccc(-c3cnc4ccccc4c3)cc12` [Example 101, 4-Isopropoxy-6-quinolin-3-yl-quinazolin-2-ylamine] are 1 to 10 µM and 10 to 20 µM.
The corresponding values for `Nc1nc(OCC2CCC2)c2cc(-c3ccc(F)cc3F)ccc2n1` [Example 102, 4-Cyclobutylmethoxy-6-(2,4-difluoro-phenyl)-quinazolin-2-ylamine] are 1 to 10 µM and < 10 µM.
With `Nc1nc(OCC2CCC2)c2cc(-c3ccc(F)cc3)ccc2n1` [Example 103, 4-Cyclobutylmethoxy-6-(4-fluoro-phenyl)-quinazolin-2-ylamine], the EC50 in the data set on HCV replicon lay within 1 to 10 µM. In addition, the CC50 at 3 days in data set [1] fell in the range of 10 to 20 µM.
The corresponding values for `Nc1nc(OCC2CCC2)c2cc(-c3cccc(F)c3F)ccc2n1` [Example 104, 4-Cyclobutylmethoxy-6-(2,3-difluoro-phenyl)-quinazolin-2-ylamine] are 1 to 10 µM and > 20 µM.
The corresponding values for `Cc1ccccc1-c1ccc2nc(N)nc(OCC3CCC3)c2c1` [Example 105, 4-Cyclobutylmethoxy-6-o-tolyl-quinazolin-2-ylamine] are 1 to 10 µM and 10 to 20 µM.
In turn, `Nc1nc(OCC2CCC2)c2cc(-c3cccc(C(F)(F)F)c3)ccc2n1` [Example 106, 4-Cyclobutylmethoxy-6-(3-trifluoromethyl-phenyl)-quinazolin-2-ylamine] yielded an EC50 with HCV replicon of 1 to 10 µM. Besides, in data set [1], the CC50 at 3 days is 10 to 20 µM.
The corresponding values for `Cc1ccc(-c2ccc3nc(N)nc(OCC4CCC4)c3c2)cc1` [Example 107, 4-Cyclobutylmethoxy-6-p-tolyl-quinazolin-2-ylamine] are 1 to 10 µM and > 20 µM.
`Nc1nc(OCC2CCC2)c2cc(-c3ccc(Cl)cc3Cl)ccc2n1` [Example 108, 4-Cyclobutylmethoxy-6-(2,4-dichloro-phenyl)-quinazolin-2-ylamine] displayed an EC50 in the data set on HCV replicon of 1 to 10 µM. For the same molecule, the CC50 at 3 days in data set [1] is > 20 µM.
Molecule `CCOc1ccc(-c2ccc3nc(N)nc(OCC4CCC4)c3c2)cc1` [Example 109, 4-Cyclobutylmethoxy-6-(4-ethoxy-phenyl)-quinazolin-2-ylamine] showed an EC50 with HCV replicon of 1 to 10 µM. For the same molecule, the CC50 at 3 days in data set [1] is > 20 µM.
The corresponding values for `Nc1nc(OCC2CCC2)c2cc(-c3ccc(F)cc3Cl)ccc2n1` [Example 110, 4-Cyclobutylmethoxy-6-(2-chloro-4-fluoro-phenyl)-quinazolin-2-ylamine] are 1 to 10 µM and 10 to 20 µM.
`Nc1nc(OCC2CCC2)c2cc(-c3ccoc3)ccc2n1` [Example 111, 4-Cyclobutylmethoxy-6-furan-3-yl-quinazolin-2-ylamine]: the EC50 in the data set on HCV replicon fell in the range of 0.3 to 1 µM. The molecule also yielded a CC50 at 3 days in data set [1] of 10 to 20 µM.
With `Nc1nc(OCC2CCC2)c2cc(-c3ccc(F)c(Cl)c3)ccc2n1` [Example 112, 4-Cyclobutylmethoxy-6-(3-chloro-4-fluoro-phenyl)-quinazolin-2-ylamine], in the data set on HCV replicon, the concentration for a half-maximal effect (EC50) was 1 to 10 µM. In addition, the CC50 at 3 days in data set [1] was > 20 µM.
For `Nc1nc(OCC2CCC2)c2cc(-c3ccn[nH]3)ccc2n1` [Example 113, 4-Cyclobutylmethoxy-6-(2H-pyrazol-3-yl)-quinazolin-2-ylamine], the EC50 in the data set on HCV replicon was 0.3 to 1 µM. Moreover, in data set [1], the CC50 at 3 days fell in the range of 10 to 20 µM.
The molecule `Nc1nc(OCC2CCC2)c2cc(-c3cc4ccccc4o3)ccc2n1` [Example 114, 6-Benzofuran-2-yl-4-cyclobutylmethoxy-quinazolin-2-ylamine] gave an EC50 in the data set with HCV replicon of 1 to 10 µM. In addition, the CC50 at 3 days in data set [1] was 10 to 20 µM.
`Nc1nc(OCC2CCC2)c2cc(-c3ccco3)ccc2n1` [Example 116, 4-Cyclobutylmethoxy-6-furan-2-yl-quinazolin-2-ylamine] gave an EC50 in the data set on HCV replicon of 1 to 10 µM. In addition, in data set [1], the CC50 at 3 days is > 20 µM.
The corresponding values for `Nc1nc(OCC2CCC2)c2cc(-c3ccsc3)ccc2n1` [Example 117, 4-Cyclobutylmethoxy-6-thiophen-3-yl-quinazolin-2-ylamine] are 1 to 10 µM and 10 to 20 µM.
`Nc1nc(OCC2CCC2)c2cc(-c3cccnc3)ccc2n1` [Example 118, 4-Cyclobutylmethoxy-6-pyridin-3-yl-quinazolin-2-ylamine] yielded an EC50 with HCV replicon of 0.3 to 1 µM. Besides, the CC50 at 3 days in data set [1] was 10 to 20 µM.
The corresponding values for `N#Cc1cccc(-c2ccc3nc(N)nc(OCC4CCC4)c3c2)c1` [Example 119, 3-(2-Amino-4-cyclobutylmethoxy-quinazolin-6-yl)-benzonitrile] are 1 to 10 µM and 10 to 20 µM.
The corresponding values for `Nc1nc(OCC2CCC2)c2cc(-c3cn[nH]c3)ccc2n1` [Example 120, 4-Cyclobutylmethoxy-6-(2H-pyrazol-4-yl)-quinazolin-2-ylamine] are 0.3 to 1 µM and 10 to 20 µM.
